We go through one molecule from patent US8541476B2, “Compounds for treatment of malignant tumors” (The Trustees of the University of Pennsylvania, priority 2007, dated 2013).

A short description of series [1]: NS-123 toxicity evaluation in nu/nu mice. Type of series: in vivo. As for the experimental part: Female nu/nu (nude) mice (6-8 weeks old; Charles River, Wilmington, Mass.) were maintained at the WFUSM animal facility under conditions approved by the Animal Care and Use Committee. NS-123 in DMSO was mixed with 30% propylene glycol (DMSO concentration<1%) and administered via an i.p. injection at a dose of 50 mg/kg to three mice on three consecutive days. The mice were monitored over 30 days for signs of drug-related toxicity, lethality, and weight loss. Mice were euthanized by CO2 asphyxiation and necropsy was performed by a veterinary pathologist. The heart, lung, liver, spleen, kidney, brain, salivary gland, gastrointestinal tract, ovary, uterus, adrenal gland, and thyroid gland were preserved in 10% neutral buffered formalin for at least 48 hours. The tissues were embedded in paraffin, processed routinely for histology, cut at 4-6 microns, stained with hematoxylin and eosin and examined by light microscopy.
To test this hypothesis, 50 mg/kg (i.p.) was administered to nude mice for 3 consecutive days. Clinical signs of drug toxicity and lethality were not observed over the following 30 days.

In series [2] the test system is dsDNA break repair in U251 cells. Kind of series: DSB measurement by PFGE and number average length analysis. The format is cell-based, human. The settings on record: U251, 30 μM 4 hours, 4 Gy. As for the experimental part:
Cells were treated with 30 μM NS-123 or DMSO alone. Four hours later, the cells were either sham-irradiated, or irradiated with 4 Gy of ^137Cs γ-rays (Radiation Facility, Brody School of Medicine, ECU) at the dose rate of 0.57 Gy/min and placed immediately at 37° C. in fresh medium without NS-123 and harvested at different repair times up to 24 hours. No significant changes in the percentage of dead cells were detected by trypan blue exclusion as a result of irradiation. […] A DNA dispersion curve relating DNA length to electrophoretic mobility, based on all length standards was determined from an analytical mobility function as previously described using number average length analysis (NALA) (Seo, et al., 2005, Clin. Cancer Res. 11:7499-507).
As a first step in understanding the mechanism of the radiosensitizing activity of NS-123, the processing of DSBs in U251 cells treated with 30 μM NS-123 or DMSO (control) was measured using an adaptation of PFGE. […] Therefore, a 4 hour, 30 μM NS-123 treatment for experiments analyzing the effects of NS-123 on DSB repair and immunoblotting was used (see below) which require a significant quantity of cells. […]

For the molecule `CCC(=O)c1ccc(Br)c([N+](=O)[O-])c1` [NS-123, 4′-bromo-3′-nitropropiophenone], the “gross and histopathological examination” value in series [1] (female, nu/nu (nude), mouse, in vivo, ip, 50 mg/kg) was “did not reveal any evidence suggestive of NS-123 associated toxicity”. The “clinical signs of drug toxicity and lethality” value in series [1] (nude mice, 50 mg/kg i.p. 3 consecutive days, 30 days observation) is “not observed”. Besides, the “initial number of dsDNA breaks” value in series [2] turned out to be 88.5±5.3 DSBs/Gbp. Besides, in series [2] (24 hours repair), the “residual DSB damage compared to initial levels” value is listed as around 25%.
